Data from patent publication US20030229140A1, “Herbal molecule as potential anti-leukemic drug” (priority 2002, published 2003).

What was measured:
CD33+ myeloid cells = conditions: earlier patent filing; cited from earlier work
CML patient's PBMC = assay: Incubation of CML patient's PBMC (leukemic cells) with CA/PCQ, viable cell count; type: cell-based, human; conditions: for % Inhibition of cell growth (After 3 days of incubation): CML patient's leukemic cells, 2×10^5 cells per ml per well
Description: Whole blood (10 ml each) was drawn from previously diagnosed myeloid leukemic patients, one patient was diagnosed as AML and the other one was diagnosed as CML. Mononuclear cells were separated by Ficoll/hypaque density gradient centrifugation. […] Cells were then washed and counted for viability.

[1] = tested on: Promonocytic cell line (U937); assay: Incubation of CD33+ promonocytic cell line U937 with CA/PCQ, viable cell count; type: cell-based; conditions: for % Inhibition of cell growth (After 3 days of incubation): 2×10^5 cells per ml per well
Description: Culture of Promonocytic cell line U937. […] This cell line is CD33^+. Incubation of CD33^+ cell line U937 with CA. […] Cells were then washed and counted for viability.

leukemic cells = assay: Biological activity (destruction of leukemic cells) of Piper betel fractions and HPLC peaks; type: cell-based; conditions: fractions, zones and HPLC peaks of Piper betel leaf extract
Description: Collected material was examined for biological activity i.e. destruction of leukemic cells. […] 10 gm of above-mentioned material was loaded on Sephadex LH-20 column and chromatographed with water, water-methanol (1:1) and methanol as eluent. Three different fractions thus obtained from three different solvent systems were separately checked for biological activity. […] The column was equilibrated with methanol-water-acetic acid (23:76:1), flow rate was maintained at 1.0 ml per min and peaks were identified at 280 nm. According to the retention time (RE) different peaks could be divided into three zones, ZA/ZB and ZC (FIG. 1). ZA had 4 major peaks whereas ZB had very small to moderate 10 peaks and ZC had two distinct peaks. It was convenient to observe biological activity of three zones AA, ZB and ZC, which were separately tested on leukemia cells for destructive activity.

[2] = tested on: Erythroleukemic cell line (K562); assay: Incubation of CD33- erythroleukemic cell line K562 with CA/PCQ, viable cell count; type: cell-based; conditions: for % Inhibition of cell growth (After 3 days of incubation): 2×10^5 cells per ml per well
Description: This cell line was collected from American Type Culture Collection (ATCC), VA, USA. This cell line is […]. […] Cells were then washed and counted for viability.

Normal PBMC = assay: Growth inhibition of normal individuals' PBMC by CA/PCQ; type: cell-based, human; conditions: Normal individual's PBMC, 3 days, 2×10^5 cells per ml per well
Description: Preparation of peripheral blood mononuclear cells (PBMC) from normal individuals. Whole blood was collected and mononuclear cells were separated by Ficoll/Hypaque density gradient centrifugation.

O=C(C=Cc1ccc(O)cc1)OC1CC(O)(C(=O)O)CC(O)C1O (stereo not shown) [PCQ, 3-o-p-Coumaryl quinic acid]
CD33+ myeloid cells destruction (in words) (CD33+ myeloid cells): showed CD33+myeloid cells destruction
growth inhibition of leukemic cell lines (CML patient's PBMC; CML leukemic cells, 2×10^6/ml/well, 25 μg/ml of PCQ): up to 2.38%
% Inhibition of cell growth (After 3 days of incubation) (CML patient's PBMC; 25.0 μg/ml): 2.38%
% Inhibition of cell growth (After 3 days of incubation) (CML patient's PBMC; 50.0 μg/ml): 4.76%
% Inhibition of cell growth (After 3 days of incubation) ([1]; U937, 25.0 μg/ml): 2.08%
% Inhibition of cell growth (After 3 days of incubation) ([1]; U937, 50.0 μg/ml): 4.17%
growth inhibition of leukemic cell lines ([1]; U937, 2×10^6/ml/well, 25 μg/ml of PCQ): up to 2.08%
biological activity i.e. destruction of leukemic cells (in words) (leukemic cells): demonstrated considerable activity
% Inhibition of cell growth (After 3 days of incubation) ([2]; K562, 25.0 μg/ml): 4.00%
% Inhibition of cell growth (After 3 days of incubation) ([2]; K562, 50.0 μg/ml): 8.00%
growth inhibition of leukemic cell lines ([2]; K562, 2×10^6/ml/well, 25 μg/ml): up to 4%
% Inhibition of cell growth (After 3 days of incubation) (Normal PBMC; 25.0 μg/ml): 0.00%
% Inhibition of cell growth (After 3 days of incubation) (Normal PBMC; 50.0 μg/ml): 1.67%
